System: Mitochondria-located protein genes
Test: DNA chip mRNA expression in yeast, mitochondria-located protein genes (Table 2)
Format: cell-based, Saccharomyces cerevisiae S288C
Conditions: cells incubated two hours with the chemical substance
Outline: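 Value is the scanned fluorescence intensity ratio of exposed versus chemical-free cells. Log-phase S288C yeast in YPD at 25° C. received one toxic substance for two hours, dosed to slow growth without killing; Cy3/Cy5-labeled cDNA from oligo-dT-purified mRNA was hybridized to a whole-genome chip at 65° C.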

Measured: The level of expressed mRNA in the presence of chemical substance/The level of expressed mRNA in the absence of chemical substance

COc1cc(CNC(=O)CCCCC=CC(C)C)ccc1O [(12), 8-methyl-N-vanillyl-6-nonenamide]
0.7: yeast gene YKL003C | yeast gene YLR259C | yeast gene YMR023C | yeast gene YMR083W | yeast gene YMR203W | yeast gene YNL073W | yeast gene YPL215W
0.6: yeast gene YKL194C | yeast gene YLR038C | yeast gene YLR395C | yeast gene YNL256W
1.8: yeast gene YML054C
1.3: yeast gene YMR152W | yeast gene YNL071W | yeast gene YOR176W
1.0: yeast gene YKL016C | yeast gene YLR304C
1.7: yeast gene YNL055C
0.8: yeast gene YJR121W | yeast gene YKL141W | yeast gene YKL148C | yeast gene YKL170W | yeast gene YLL041C | yeast gene YML129C | yeast gene YMR089C | yeast gene YMR267W | yeast gene YOR020C | yeast gene YOR100C | yeast gene YOR142W | yeast gene YOR150W | yeast gene YOR187W | yeast gene YPL134C | yeast gene YPR024W
1.1: yeast gene YNL104C | yeast gene YOR316C | yeast gene YPL135W | yeast gene YPL262W
1.2: yeast gene YOL096C | yeast gene YOR037W
0.9: yeast gene YKR066C | yeast gene YLR348C | yeast gene YML120C | yeast gene YOR130C | yeast gene YPL040C | yeast gene YPR037C | yeast gene YPR047W | yeast gene YPR134W
0.5: yeast gene YLR295C | yeast gene YMR035W
1.9: yeast gene YKL142W

Reference: patent publication US8192962B2, “Processes for detecting toxic substances” (Daikin Industries, Ltd., priority 2001, dated 2012)
